Measured values as given in patent US20260150841A1, “PYRIDINE COMPOUNDS FOR COMBATTING DIHYDROOROTATE-DEHYDROGENASE INHIBITOR-RESISTANT PHYTOPATHOGENIC FUNGI” (priority 2022, published 2026).
Converted amounts (≈) assume the structure as drawn. Where two headings read alike, the source gives them in different places.

Assays:
Format in all cases: cell-based
[1] = system: Botrytis cinerea mutant G111E; experiment: Activity against Botrytis cinerea in the microtiter test, mutant G111E; settings: for IC50: Botrytis cinerea, MUTANTG111E, 168 h, read-out: Absolute IC50, G111E, Botrytis cinerea mutant G111E, turbidity at 620 nm after 7 days
Excerpt: (§1) The active substances were formulated separately as a stock solution in dimethyl sulfoxide (DMSO) at a concentration of 10 000 ppm.
(§2) Spontaneous mutants were selected by plating out B. cinerea spores (in the range of 10^7-10^8) on DOB agar plates (3.4 g/l YNB (Becton Dickinson), 10 g/l Ammoniumsulfat, 40 g/l Glucose, 20 g/l Agar), amended with different lethal concentrations of active ingredient. After 7-14 days growing colonies were transferred to DOB agar plates, amended with the same lethal concentrations of active ingredient and then further propagated on Oatmeal agar medium (50 g/l Oatmeal agar (Sigma), 15 g/l Agar (Difco) for sensitivity testing.
(§3) Fungal strains used: • a) Botrytis cinerea (sensitive, wild-type) • b) Various mutants of Botrytis cinerea
(§4) The spores of Botrytis cinerea were harvested with a cotton swab from an Oatmeal agar plate (50 g/l Oatmealagar (Sigma, Art.O-3506), 15 g/l agar, (Difco) and this is dipped in 3 ml of double concentrated DOB-medium (3.4 g/l YNB (Becton Dickinson), 10 g/l Ammoniumsulfat, 40 g/l Glucose, adjusted to pH 7) and the spore suspension is adjusted to a spore density of 3.2×10^4 spores/ml. The compound solutions were diluted from stock solution in (dimethylsulfoxide) DMSO in several steps with sterile deionized water before use. High test concentrations were 50 mg/L (ppm) or 31 mg/L (ppm). Compound solutions were transferred into empty microplates and filled up with an equal amount of spore suspension.
(§5) The antifungal activity was determined by measuring the turbidity of a culture in 96-well microplates in the presence of test compounds after 7 days incubation at 620 nm. A blank value for each concentration (growth media+compound, without spores) are subtracted from the spore suspension. The relative antifungal activity was calculated by comparing the effect of the test compounds with the effect of a DMSO control The results are shown in Table IV (for compounds of general formula I.A), VI (for compounds of general formula I.B), and VIII (for compounds of general formula I.C).
(§6) A compound showing an IC50 (MUT) above the IC50 (WT) and showing an IC50 (MUT) to IC50 (WT) ratio being in a range above 100 is considered unsuitable (“I”) as DHODH inhibitor.
(§7) The absolute IC50-values (concentration of test compound resulting in 50% inhibition of fungal growth) were calculated from the resulting dose-response for each compound and strain.

[2] = system: Botrytis cinerea (sensitive, wild-type); experiment: Activity against Botrytis cinerea in the microtiter test, wild type; settings: turbidity at 620 nm after 7 days; for IC50: 168 h, read-out: Absolute IC50, wild type
Protocol: as §1, §3, §4, §5, §7

[3] = system: Botrytis cinerea mutant G111V; experiment: Activity against Botrytis cinerea in the microtiter test, mutant G111V; settings: for IC50: Botrytis cinerea, MUTANTG111V, 168 h, read-out: Absolute IC50, G111V, Botrytis cinerea mutant G111V, turbidity at 620 nm after 7 days
Excerpt: as §1, §2, §3, §4, §5, §6, §7

[4] = system: Botrytis cinerea mutant Y208H; experiment: Activity against Botrytis cinerea in the microtiter test, mutant Y208H; settings: for IC50: Botrytis cinerea, MUTANTY208H, 168 h, read-out: Absolute IC50, Y208H, Botrytis cinerea mutant Y208H, turbidity at 620 nm after 7 days
Excerpt: as §1, §2, §3, §4, §5, §6, §7

[5] = system: Botrytis cinerea mutant V195F; experiment: Activity against Botrytis cinerea in the microtiter test, mutant V195F; settings: for IC50: Botrytis cinerea, MUTANTV195F, 168 h, read-out: Absolute IC50, V195F, Botrytis cinerea mutant V195F, turbidity at 620 nm after 7 days
Excerpt: as §1, §2, §3, §4, §5, §6, §7

[6] = system: Botrytis cinerea mutant H108P; experiment: Activity against Botrytis cinerea in the microtiter test, mutant H108P; settings: for IC50: Botrytis cinerea, MUTANTH108P, 168 h, read-out: Absolute IC50, H108P, Botrytis cinerea mutant H108P, turbidity at 620 nm after 7 days
Excerpt: as §1, §2, §3, §4, §5, §6, §7

[7] = system: Sclerotinia sclerotiorum (sensitive, wild-type); experiment: Activity against Sclerotinia sclerotiorum in tissue culture plate assay with mycelial plugs, wild type; settings: 168 h, % growth after 7 days at 18° C., read-out: Absolute IC50, wild type
Protocol: Fungal strains used: • a) Sclerotinia sclerotiorum (sensitive, wild-type) • b) Mutants of Sclerotinia sclerotiorum
Pure cultures are grown on DOB-agar medium, (3.4 g/l YNB (Becton Dickinson), 10 g/l Ammoniumsulfat, 40 g/l Glucose) for 5-7 days at 18° C. Mycelial plugs (6 mm diame-ter) taken from the margin of the colonies are used as inoculum for the sensitivity test. 500 μl fungicide-amended DOB medium (3.4 g/l YNB (Becton Dickinson), 10 g/l Ammoniumsulfat, 40 g/l Glucose, adjusted to pH 7) are added to each well of 24-well tissue culture plates. Each well is then inoculated with a mycelial plug, with the myce-lium surface up. Two replicate wells are used for each isolate and fungicide concentration. Growth is assed after 7 days incubation at 18° C. in the dark by estimating % growth in the well. IC50-values (concentration of test compound resulting in 50% inhibition of fungal growth) were calculated from the resulting dose-response for each compound and strain.

With `Cc1cc(C2=NCC(C)(C)Oc3ccccc32)cnc1C` [compound 47] the IC50 [1] was 2.47 µg/mL (≈ 8.81 µM), the IC50 ([2]; Botrytis cinerea) was 0.04 µg/mL (≈ 0.143 µM) and the IC50 [3] was 0.55 µg/mL (≈ 1.96 µM). For the same compound, the IC50 [4] was 1.9 µg/mL (≈ 6.78 µM), the IC50 [5] was 0.02 µg/mL (≈ 0.0713 µM) and the IC50 [6] was 0.83 µg/mL (≈ 2.96 µM).
Compound `Cc1cc(C2=NC(C)(C)C(C)(C)Oc3ccccc32)cnc1C(F)F` [compound 49] has an IC50 [1] of 2.35 µg/mL (≈ 6.82 µM), an IC50 [2] of 0.01 µg/mL (≈ 0.029 µM) and an IC50 [3] of 0.7 µg/mL (≈ 2.03 µM). It also gave an IC50 [4] of 0.97 µg/mL (≈ 2.82 µM), an IC50 [5] of 0.01 µg/mL (≈ 0.029 µM) and an IC50 [6] of 0.32 µg/mL (≈ 0.929 µM).
With `Cc1cc(C2=NC(C)(C)COc3ccccc32)cnc1C` [compound 51] the “Relative antifungal activity expressed as IC50, G111V” value ([3]; {}) was “AA AA AA” and the “Relative antifungal activity expressed as IC50, V195F” value ([5]; {}) was “AA AA AA”.
In the case of `CC(C)(C)C1(C)N=C(c2cnc3c(F)cccc3c2)c2ccccc2O1` (centres unmarked) [drawing 117, reference compound], the IC50 [2] is reported as 0.07 µg/mL (≈ 0.201 µM) and the IC50 [5] is reported as > 31 µg/mL.
For `Cc1cc(C2=NC3(CCC3)Oc3ccccc32)cnc1C` [drawing 125, reference compound], the “Absolute IC50, G111E” value ([1]; {}) was 10.94 ppm, the “Absolute IC50, wild type” value [2] was 0.11 ppm and the “Absolute IC50, G111V” value ([3]; {}) was 0.25 ppm. For the same compound, the “Absolute IC50, Y208H” value ([4]; {}) was 1.43 ppm, the “Absolute IC50, V195F” value ([5]; {}) was 2.99 ppm and the “Absolute IC50, H108P” value ([6]; {}) was 0.25 ppm.
`CC1(c2ccccc2)N=C(c2cnc3c(F)cccc3c2)c2cccc(F)c2O1` (centres unmarked) [drawing 127, reference compound] showed an IC50 ([2]; Botrytis cinerea) of 0.04 µg/mL (≈ 0.104 µM) and an IC50 [5] of 15.5 µg/mL (≈ 40.2 µM).
For `COc1ccc2c(c1)OC(C)(C)N=C2c1cnc2c(F)cccc2c1` [drawing 129, reference compound], the IC50 ([2]; Botrytis cinerea) was 0.01 µg/mL (≈ 0.0297 µM) and the IC50 [5] was 5.28 µg/mL (≈ 15.7 µM).
With `CCN1c2c(F)cccc2C(c2cnc3c(F)cccc3c2)=NC1(C)C` [drawing 141, reference compound] the IC50 [2] was 0.02 µg/mL (≈ 0.0569 µM) and the IC50 [5] was > 31 µg/mL.
`CC1(C)N=C(c2cnc3c(F)cccc3c2)c2ccccc2OC1(C)C` [drawing 163, reference compound] was tested, and the IC50 ([2]; Botrytis cinerea) was 0.001 µg/mL (≈ 0.00287 µM) and the IC50 [5] was 2.84 µg/mL (≈ 8.15 µM).
In the case of `CC(C)(C)C1(C)N=C(c2cnc3c(F)cccc3c2)c2ccccc2O1` (centres unmarked) [drawing 166], the IC50 [7] is reported as 0.137 µg/mL (≈ 0.393 µM).
Work on `CC1(c2ccccc2)N=C(c2cnc3c(F)cccc3c2)c2cccc(F)c2O1` (centres unmarked) [drawing 168] yielded an IC50 [7] of 0.154 µg/mL (≈ 0.399 µM).
`COc1ccc2c(c1)OC(C)(C)N=C2c1cnc2c(F)cccc2c1` [drawing 170] was tested, and the IC50 [7] was 0.06 µg/mL (≈ 0.178 µM).
In the case of `CCN1c2c(F)cccc2C(c2cnc3c(F)cccc3c2)=NC1(C)C` [drawing 175], the IC50 [7] is reported as 0.03 µg/mL (≈ 0.0854 µM).
`CC1(C)N=C(c2cnc3c(F)cccc3c2)c2ccccc2OC1(C)C` [drawing 178] gave an IC50 [7] of 2 µg/mL (≈ 5.73 µM).
Compound `Fc1cccc2cc(C3=NC4(CCCC4)Oc4ccccc43)cnc12` [reference compound] has an IC50 ([2]; Botrytis cinerea) of 0.05 µg/mL (≈ 0.15 µM) and an IC50 [5] of 10.9 µg/mL (≈ 32.8 µM).
In the case of `Fc1cccc2c1OC1(CCC1)N=C2c1cnc2ccccc2c1` [reference compound], the IC50 [1] is reported as 9.48 µg/mL (≈ 29.8 µM), the IC50 [2] is reported as 0.03 µg/mL (≈ 0.0942 µM) and the IC50 [3] is reported as 0.14 µg/mL (≈ 0.44 µM). For the same compound, the IC50 [4] was 1.59 µg/mL (≈ 4.99 µM), the IC50 [5] was 24.1 µg/mL (≈ 75.9 µM) and the IC50 [6] was 0.11 µg/mL (≈ 0.346 µM).
`CC1(C)N=C(c2cnc3c(F)cccc3c2)c2cccc(F)c2N1` [reference compound] was tested, and the IC50 ([2]; Botrytis cinerea) was 0.005 µg/mL (≈ 0.0155 µM) and the IC50 [5] was 4.42 µg/mL (≈ 13.7 µM).
Work on `CC1(C)CN=C(c2cnc3ccccc3c2)c2ccccc2O1` [reference compound] yielded an IC50 ([2]; Botrytis cinerea) of 0.001 µg/mL (≈ 0.00331 µM) and an IC50 [5] of 19.5 µg/mL (≈ 64.6 µM).
